Measured values reported in patent US12053549B2, “Laxative tablet” (SETOLAS Holdings, Inc., priority 2018, dated 2024).

Test: Volume-based 50% particle diameter (D50) of raw materials by laser diffractometry
Assay type: physicochemical
Conditions: raw material
Description: 0.7 g of magnesium oxide was placed in a beaker with 70 mL of 0.2% sodium hexametaphosphate solution, and the mixture was subjected to dispersion treatment (3 minutes) using an ultrasonic homogenizer (Nippon Seiki, US-300). The volume-based 50% particle size (D50) of the magnesium oxide was then measured using a laser diffraction scattering particle size analyzer (Nikkiso, Microtrac).

## [O]=[Mg] [Magnesium oxide]
  volume-based 50% particle size (D50): 6.5 μm
